Structures can show the parent of a compound that is named as a salt. Where two headings read alike, the source gives them in different places. Each block holds one compound with its values, some of them ahead of it.
Tests used:
Mythimna separata = assay: Efficacy test (2) against Mythimna separata (corn leaf disc); assay type: in vivo; conditions: foliar, 144 h, 125 ppm by mass, corn leaf disc immersed 30 seconds, second-instar larvae, 25° C., humidity 60%, after six days
Experimental: (§1) 5 parts by mass of a compound according to the present invention, 93.6 parts of dimethylformamide, and 1.4 parts of polyoxyethylene alkyl aryl ether were mixed and dissolved to obtain an emulsion (1) containing 5% by mass of the active ingredient.
The emulsion (1) was diluted with water such that the amount of the compound according to the present invention became 125 ppm by mass. A corn leaf disc was immersed in the diluted solution for 30 seconds. The corn leaf disc was put in a petri dish, and five second-instar larvae of Mythimna separata were left therein. The petri dish was placed in a thermostatic chamber at a temperature of 25° C. and a humidity of 60%. After six days had passed from leaving the larvae, life or death was assessed and the mortality was calculated. The test was repeated twice.

Spodoptera litura = assay: Efficacy test against Spodoptera litura (cabbage leaf disc); assay type: in vivo; conditions: foliar, 144 h
Experimental: as §1
The emulsion (1) was diluted with water such that the amount of the compound according to the present invention became 125 ppm by mass. A cabbage leaf disc was immersed in the diluted solution for 30 seconds. The cabbage leaf disc was air-dried and then put in a petri dish, followed by leaving five second-instar larvae of Spodoptera litura therein. The petri dish was placed in a thermostatic chamber at a temperature of 25° C. and a humidity of 60%. After six days had passed from leaving the larvae, life or death was assessed and the mortality was calculated. The test was repeated twice.

Plutella xylostella = assay: Efficacy test against Plutella xylostella (cabbage leaf disc); assay type: in vivo; conditions: foliar, 72 h, 125 ppm by mass, cabbage leaf disc immersed 30 seconds, second-instar larvae, 25° C., humidity 60%, after three days
Helicoverpa armigera = assay: Efficacy test against Helicoverpa armigera (cabbage leaf disc); assay type: in vivo; conditions: foliar, 144 h
[1] = 125 ppm by mass, cabbage leaf disc immersed 30 seconds, second-instar larvae, 25° C., humidity 60%, after six days, read-out: mortality

Structure (SMILES): O=C([N-][n+]1ccccc1)c1ccc(C2CC2c2ccc(Cl)cc2)cc1 (stereo not shown) [Compound C2-4]
mortality at 125 ppm (Mythimna separata): ≥ 80%

Structure (SMILES): O=C([N-][n+]1ccccc1)c1ccc(/C=C/C(F)(F)F)cc1 [Compound C1-25, 1-(4-((1E)-3,3,3-trifluoro-1-propen-1-yl)benzamide)pyridinium intramolecular salt]
mortality at 125 ppm (Spodoptera litura; [1]): ≥ 80%

Structure (SMILES): O=C([N-][n+]1ccccc1)c1ccc(/C=C/c2ccc(C(F)(F)F)cc2)cc1 [Compound C1-31, (E)-Pyridin-1-ium-1-yl(4-(4-(trifluoromethyl)styryl)benzoyl)amide]
mortality at 125 ppm (Mythimna separata): ≥ 80%
mortality at 125 ppm (Spodoptera litura; [1]): ≥ 80%
mortality at 125 ppm (Plutella xylostella): ≥ 80%

Structure (SMILES): O=C([N-][n+]1ccccc1)c1ccc(Oc2ccc(OC(F)(F)F)cc2)cc1 [Compound C1-8, pyridin-1-ium-1-yl(4-(4-(trifluoromethoxy)phenoxy)benzoyl)amide]
melting point: 111 to 113 °C

Structure (SMILES): CC(C)(C)OC(=O)Nc1ccc(C(=O)[N-][n+]2ccccc2)cc1 [Compound C1-57, (4-((tert-butoxycarbonyl)amino)benzoyl)(pyridin-1-ium-1-yl)amide]
melting point: 251 to 253 °C

Structure (SMILES): O=C([N-][n+]1ccccc1)c1ccc(C#Cc2ccc(C(F)(F)F)cc2)cc1 [Compound C1-29, pyridin-1-ium-1-yl(4-((4-(trifluoromethyl)phenyl)ethynyl)benzoyl) amide]
mortality at 125 ppm (Mythimna separata): ≥ 80%
mortality at 125 ppm (Spodoptera litura; [1]): ≥ 80%
mortality at 125 ppm (Plutella xylostella): ≥ 80%

Structure (SMILES): O=C([N-][n+]1ccccc1)c1ccc(C2CC2c2ccc(C(F)(F)F)cc2)cc1 (stereo not shown) [Compound C2-2]
mortality at 125 ppm (Spodoptera litura; [1]): ≥ 80%
mortality at 125 ppm (Helicoverpa armigera; [1]): ≥ 80%

Structure (SMILES): O=C([N-][n+]1ccccc1)c1ccc(NS(=O)(=O)c2ccc(C(F)(F)F)cc2)cc1
melting point: 199 to 203 °C

Structure (SMILES): O=C([N-][n+]1ccccc1)c1ccc(C(=O)c2ccc(OC(F)(F)F)cc2)cc1 [Compound C1-30, 1-(4-(4-(trifluoromethoxy)benzoyl)benzamide)pyridinium intramolecular salt]
mortality at 125 ppm (Plutella xylostella): ≥ 80%

Structure (SMILES): O=C([N-][n+]1ccccc1)c1ccc(/C=C/c2ccc(OC(F)(F)F)cc2)cc1 [Compound C2-5]
mortality at 125 ppm (Spodoptera litura; [1]): ≥ 80%
mortality at 125 ppm (Plutella xylostella): ≥ 80%

Structure (SMILES): O=C([N-][n+]1ccccc1)c1ccc(Cc2ccc(C(F)(F)F)cc2)cc1 [Compound C1-7, pyridin-1-ium-1-yl(4-(4-(trifluoromethyl)benzyl)benzoyl)amide]
melting point: 180 to 183 °C

Structure (SMILES): O=C([N-][n+]1ccccc1)c1ccc(C2CC2c2ccc(OC(F)(F)F)cc2)cc1 (stereo not shown) [Compound C2-1]
mortality at 125 ppm (Spodoptera litura; [1]): ≥ 80%
mortality at 125 ppm (Helicoverpa armigera; [1]): ≥ 80%

Structure (SMILES): O=C([N-][n+]1ccccc1)c1ccc(OCC(F)(F)C(F)(F)C(F)(F)C(F)(F)F)cc1 [Compound C1-19, 1-(4-(2,2,3,3,4,4,5,5,5-nonafluoropentoxy)benzamide)pyridinium intramolecular salt]
mortality at 125 ppm (Spodoptera litura): ≥ 80%

Structure (SMILES): CC(C)(C)OC(=O)N(Cc1ccc(OC(F)(F)F)cc1)c1ccc(C(=O)[N-][n+]2ccccc2)cc1 [Compound C2-9]
melting point: 183 to 184 °C

Structure (SMILES): O=C([N-][n+]1ccccc1)c1ccc(OC(F)(F)C(F)OC(F)(F)C(F)(F)C(F)(F)F)cc1 (stereo not shown) [Compound C1-11, 1-(4-(1,1,2-trifluoro-2-(perfluoropropoxy)ethoxy)benzamide) pyridinium intramolecular salt]
mortality at 125 ppm (Spodoptera litura): ≥ 80%
mortality at 125 ppm (Helicoverpa armigera): ≥ 80%

Structure (SMILES): O=C([N-][n+]1ccccc1)c1ccc(SCC(F)(F)C(F)(F)C(F)(F)C(F)(F)C(F)(F)F)cc1 (as salt: salt) [Compound C1-18, 1-(4-((2,2,3,3,4,4,5,5,6,6,6-undecafluorohexyl)thio)benzamide) pyridinium intramolecular salt]
melting point: 132 to 134 °C

Results, then the compound that gave them:

melting point: 161 to 162 °C
Structure (SMILES): O=C([N-][n+]1ccccc1)c1ccc(OC/C=C/Cl)cc1 [Compound C2-8]

melting point: 281 to 283 °C
Structure (SMILES): O=C([N-][n+]1ccccc1)c1ccc(C(=O)Nc2ccc(OC(F)(F)F)cc2)cc1 [Compound C1-1, pyridin-1-ium-1-yl(4-((4-(trifluoromethoxy)phenyl)carbamoyl)benzoyl)amide]

melting point: 287 to 289 °C
Structure (SMILES): O=C([N-][n+]1ccccc1)c1ccc(NC(=O)c2ccc(C(F)(F)F)cc2)cc1

melting point: 140 to 144 °C
Structure (SMILES): Cc1cccc[n+]1[N-]C(=O)c1ccc(C2CC2c2ccc(Cl)cc2)cc1 (stereo not shown) [Compound C2-3]

melting point: 101 to 104 °C
Structure (SMILES): O=C([N-][n+]1ccccc1)c1ccc(OC/C=C\Cl)cc1 [Compound C2-7]

melting point: 142 to 143 °C
Structure (SMILES): O=C([N-][n+]1ccccc1)c1ccc(/C=N/OCC(F)(F)F)cc1 [Compound C1-5, (E)-pyridin-1-ium-1-yl(4-(((2,2,2-trifluoroethoxy)imino)methyl)benzoyl)amide]

melting point: 204 to 206 °C
Structure (SMILES): Cl.O=C(N[n+]1ccccc1)c1ccc(NCc2ccc(OC(F)(F)F)cc2)cc1.[Cl-]
